Test results as given in US5455271A, “Tight-binding inhibitors of leukotriene A4 hydrolase” (The Scripps Research Institute, priority 1993, dated 1995).
Entries after “also recorded” stand apart in the source; their conditions may differ. Counter-ions that a name gives are not always drawn. Like-named read-outs stand apart in the source and are kept apart here. One block for each molecule: values may come before it.

Key:
LTA4 hydrolase [1] = target: T1, LTA4 hydrolase (Homo sapiens, UniProt P09960); experiment: Inhibition of LTA4 hydrolase, amidase (aminopeptidase) activity, L-alanyl p-nitroanilide as substrate; assay type: biochemical; parameters: LTA4 hydrolase purified from human leukocytes; from tissue; host or cells: human leukocytes (purified enzyme); settings: for Ki: Dixon plot
T1 sequence (P09960 1-611): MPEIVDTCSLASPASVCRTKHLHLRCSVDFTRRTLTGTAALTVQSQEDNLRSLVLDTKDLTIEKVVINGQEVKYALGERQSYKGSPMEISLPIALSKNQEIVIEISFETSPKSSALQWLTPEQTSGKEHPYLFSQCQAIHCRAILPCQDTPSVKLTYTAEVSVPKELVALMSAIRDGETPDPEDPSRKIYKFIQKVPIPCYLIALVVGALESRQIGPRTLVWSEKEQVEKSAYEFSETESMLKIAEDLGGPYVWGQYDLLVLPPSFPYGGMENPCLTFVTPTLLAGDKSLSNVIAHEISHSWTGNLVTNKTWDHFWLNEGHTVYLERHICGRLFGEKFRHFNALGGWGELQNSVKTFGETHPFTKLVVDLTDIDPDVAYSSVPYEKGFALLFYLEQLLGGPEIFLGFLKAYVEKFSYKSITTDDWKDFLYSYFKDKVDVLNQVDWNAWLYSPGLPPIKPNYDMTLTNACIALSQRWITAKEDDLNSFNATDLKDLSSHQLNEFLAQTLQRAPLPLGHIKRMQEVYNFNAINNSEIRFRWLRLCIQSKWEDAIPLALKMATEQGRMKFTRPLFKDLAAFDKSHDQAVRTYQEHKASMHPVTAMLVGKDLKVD
Method: ^a All assays were performed in TrisHCl buffer (0.05 M, pH 8.0) with
Lalanyl pnitroanilide (1.5 mM) as substrate unless otherwise indicated.
for each assay (final volume = 1.0 mL). pNitroaniline formation was
monitored spectrophotometrically at 405 nm. Thiol compounds were assayed
in the presence of 5 mM DTT. The values shown are within ± 5 percent
accuracy. Dixon plot was used to determine the Ki values.

Thromboxane B2 (TXB2) = experiment: Inhibition of thromboxane B2 (TXB2) in calcium ionophore A-23187-stimulated human blood; assay type: cell-based
Method: (§1) Blood was drawn from a human volunteer, and a compound solution at one of three concentrations (Table 3) or a single concentration (Table 4), or solution alone (vehicle) was added to a one ml aliquot of the blood. After incubation for 15 minutes, 14 μg of calcium ionophore A-23187 (as the free acid) was added, and the incubation continued for another 15 minutes. The reactions were stopped by immersion of the containers into slush ice, and the samples were centrifuged at 11,000 ×g to pellet red cells and leukocytes. An aliquot of the plasma was then assayed for the presence of thromboxane B2 or leukotriene B4 by standard radioimmunoassay techniques.

[2] = target: T2, LTA4 hydrolase (epoxide hydrolase activity) (Homo sapiens, UniProt P09960); experiment: Inhibition of epoxide hydrolase activity of LTA4 hydrolase, LTA4 as substrate; assay type: biochemical; settings: Table 5; read-out: IC50 Epoxide Hydrolase
T2 construct: obtained from human leukocytes and was purified to apparent homogeneity; from tissue; host or cells: human leukocytes (purified to apparent homogeneity)
T2 sequence (P09960 1-611): T1 sequence (P09960 1-611)
Method: Aliquots of enzyme (2.5 mg) were preincubated for 30-40 minutes at room temperature in 100 mL of 50 mM HEPES, pH 8, containing various amounts of the respective inhibitor. […] After addition of 200 ng PGB1 (internal standard), samples were acidified to pH value of 3 with 0.1M HCl, extracted on Chromabond C18 columns (Mackerey & Nagel), and finally analyzed on a computerized Waters HPLC system. The column (Radial-Pak C18 cartridge, 100×5 mm, Waters) was eluted with a mixture of methanol/water/acetic acid (70:30:0.01, v/v) at a flow rate of 1.2 mL/minutes. The UV absorbance of the eluate was monitored continuously at 270 nm. Amounts of LTB4 were computer calculated from peak area ratios between LTB4 and the internal standard PGB1. Peak area ratios were converted into molar ratios from comparisons with standard curve constructed from injections of known amounts of the respective compound.

Leukotriene B4 (LTB4) = experiment: Inhibition of leukotriene B4 (LTB4) in calcium ionophore A-23187-stimulated human blood; assay type: cell-based; settings: Homo sapiens
Method: as §1

LTA4 hydrolase [3] = target: T1, LTA4 hydrolase; settings: literature; cited from earlier work
LTA4 hydrolase [4] = target: T1, LTA4 hydrolase; experiment: Kinetic parameters of LTA4 hydrolase-catalyzed hydrolysis of LTA4 and amide substrates; assay type: biochemical
Method: Several amino acid amides were assayed as substrates for LTA4 hydrolase. Yuan et al., Bioorg. & Med. Chem. Lett., 1:551 (1991).
^a Determined in 50 mM TrisCl, pH 7.6, in the presence of 0.1 M NaCl, […]

[5] = target: cytosolic leucine aminopeptidase; experiment: Inhibition of cytosolic leucine aminopeptidase; assay type: biochemical
[6] = L-alanyl p-nitroanilide 1.5 mM, pH 8.0
[7] = L-alanyl p-nitroanilide 1.5 mM, pH 8.0, thiols with 5 mM DTT
[8] = Table 4, 10 μM, read-out: % Inhibition TXB2
[9] = Table 4, read-out: % Inhibition LTB4

SMILES: COC(=O)[C@@H](O)[C@@H](N)Cc1ccccc1 [Compound 2, (2S, 3S)-AHPA methyl ester]
- Ki (LTA4 hydrolase [1]; [6]): 50 µM

SMILES: NC(Cc1ccccc1)P(=O)(O)NCC(=O)O (centres unmarked) [Compound 16]
- inhibition of LTA4 hydrolase (in words) (LTA4 hydrolase [1]): a much weaker inhibitor than Compound 8

SMILES: CCOC(=O)C(F)(F)C(=O)c1nc[nH]c1C [Compound 18]
- inhibition of the enzyme at 1 mM concentration (in words) (LTA4 hydrolase [1]; 1 mM): did not inhibit the enzyme
- IC50 (LTA4 hydrolase [1]; footnote d: less than 10 percent inhibition was observed at this concentration): > 1000 µM

SMILES: CC(C)C[C@H](NC(=O)[C@@H](O)[C@H](N)Cc1ccccc1)C(=O)O [Bestatin]
- inhibition of LTA4 hydrolase, type of inhibition (in words) (LTA4 hydrolase [3]): reversible inhibitors

SMILES: CC/C=C\C/C=C\C\C=C/C=C/C=C/[C@@H]1O[C@H]1CCCC(=O)O [LTA5]
- inhibition of LTA4 hydrolase, type of inhibition (in words) (LTA4 hydrolase [3]): irreversibly inhibited

SMILES: COC(=O)[C@H](O)[C@H](N)Cc1ccccc1 [Compound 4, (2R, 3R)-AHPA methyl ester]
- inhibition of LTA4 hydrolase (in words) (LTA4 hydrolase [1]): poor or no inhibition

SMILES: COC(=O)[C@@H](O)[C@H](N)Cc1ccccc1 [Compound 3, (2S, 3R)-AHPA methyl ester]
- inhibition of LTA4 hydrolase (in words) (LTA4 hydrolase [1]): poor or no inhibition; also recorded: exhibited no activity

SMILES: N[C@@H](Cc1ccccc1)[C@H](O)C(=O)NCC(=O)O [Compound 8, (2S, 3S) -AHPA-Gly]
- Ki (LTA4 hydrolase [1]; [6]): 15 µM
- IC50 (LTA4 hydrolase [1]; [7]): 15 µM

SMILES: N[C@H](Cc1ccccc1)[C@H](O)C(=O)O [Compound 6, (2S,3R)-AHPA]
- inhibition of LTA4 hydrolase (in words) (LTA4 hydrolase [1]): loss of their inhibition potency

SMILES: N[C@@H](Cc1ccc(OCc2ccccc2)cc1)C(=O)C(=O)OCc1ccccc1 [Compound 26]
- IC50 [5]: > 100 µM
- inhibition at 1 µM (Thromboxane B2 (TXB2); read-out: % Inhibition TXB2, Table 3, 1 μM): 8%
- inhibition at 3 µM (Thromboxane B2 (TXB2); read-out: % Inhibition TXB2, Table 3, 3 μM): 7%
- inhibition at 10 µM (Thromboxane B2 (TXB2); read-out: % Inhibition TXB2, Table 3, 10 μM): 28%
- inhibition at 1 µM (Leukotriene B4 (LTB4); read-out: % Inhibition LTB4, Table 3, 1 μM): 15%
- inhibition at 3 µM (Leukotriene B4 (LTB4); read-out: % Inhibition LTB4, Table 3, 3 μM): 17%
- inhibition at 10 µM (Leukotriene B4 (LTB4); read-out: % Inhibition LTB4, Table 3): 24%

Now from value to molecule, other results behind:

- IC50 (LTA4 hydrolase [1]; [7]): 10 µM
- IC50 [2]: > 100 µM
SMILES: N[C@@H](Cc1ccc(OCc2ccccc2)cc1)C(=O)c1ccc(C(F)(F)F)cc1 [Compound 29]
- inhibition at 10 µM (Thromboxane B2 (TXB2); [8]): 0%

- inhibition of LTA4 hydrolase (in words) (LTA4 hydrolase [1]): bound more tightly than the amide
- IC50 (LTA4 hydrolase [1]; [7]): 0.8 µM
- IC50 [2]: 100 µM
SMILES: N[C@@H](Cc1ccccc1)[C@H](O)C(=O)OCc1ccccc1 [Compound 20]

- inhibition of LTA4 hydrolase (in words) (LTA4 hydrolase [1]): comparable with Compound 2
- IC50 (LTA4 hydrolase [1]; [7]): 80 µM
SMILES: COC(=O)C(=O)[C@@H](N)Cc1ccccc1 [Compound 21]
- inhibition at 10 µM (Thromboxane B2 (TXB2); [8]): 0%
- inhibition at 10 µM (Leukotriene B4 (LTB4); [9]): 8%

- IC50 (LTA4 hydrolase [1]; [7]): 20 µM
SMILES: COC(=O)[C@@H](O)[C@@H](N)Cc1ccc(OCc2ccccc2)cc1 [Compound 23]

- IC50 (Leukotriene B4 (LTB4); concentrations of about 0.3-10 μM, readout not restated, read-out: IC50 in this assay (human blood)): ~0.81 µM
SMILES: NC(CSSCC(N)Cc1ccc(OCc2ccccc2)cc1)Cc1ccc(OCc2ccccc2)cc1 [Compound 27a, Di-((2S)-3-[4-(benzyloxy)phenyl]-2-amino-propane)-disulphide HCl]
- inhibition at 10 µM (Thromboxane B2 (TXB2); [8]): 24%
- inhibition at 10 µM (Leukotriene B4 (LTB4); [9]): 100%

- Ki (LTA4 hydrolase [1]; [6]): 14 µM
- IC50 [2]: > 100 µM
SMILES: N[C@@H](Cc1ccccc1)C(=O)Cc1ccccc1 [Compound 30]
- inhibition at 10 µM (Thromboxane B2 (TXB2); [8]): 6%
- inhibition at 10 µM (Leukotriene B4 (LTB4); [9]): 15%

- acceptance as substrate for LTA4 hydrolase (in words) (LTA4 hydrolase [4]): the best
SMILES: C[C@H](N)C(=O)Nc1ccc([N+](=O)[O-])cc1 [L-Ala p-nitroanilide, L-alanine p-nitroanilide]

- IC50 (LTA4 hydrolase [1]; [6]): 0.03 µM
SMILES: N[C@@H](Cc1ccc(OCc2ccccc2)cc1)C(=O)CCCc1ccccc1 [Compound 54, (2S)-1-[4-(Benzyloxy)phenyl]-6-phenyl-2-amino-3-oxo-hexane HCl]
